Measurements as given in patent publication US11219118B2 (Drexel University, priority 2018, dated 2022).

System: CT26 challenge tumors
Test: Anti-tumor vaccination assay (whole-cell vaccine, live CT26 challenge)
Assay type: in vivo, Balb/c mice
Settings: challenge tumor at day 26; mice immunized with CT26 cells treated in vitro (plasma 300 mJ or Cisplatin 50 μM 24 hours)
Experimental: To ascertain whether the DAMP signals elicited by plasma could enhance immune responses against cancer, a vaccination assay was performed. […] Cells were prepared for inoculation and injected into the left flank as a whole-cell vaccine to allow an immune response to develop. One week after immunization, mice were challenged with live CT26 cancer cells on the opposite flank and tumor growth was monitored twice a week until day 26 when the study was terminated as a subset of the animals reached IACUC-approved endpoints (FIG. 8A). CT26 cells treated with media only or Cisplatin (50 μM for 24 hours), a non-ICD inducer, [60] were used as controls.
Cisplatin-vaccine was prepared from cells incubated for 24 hours in Cisplatin media. Media-Vaccine was prepared from cells cultured in regular, complete media for 24 hours. Cisplatin- and media-vaccines were used as controls.
After a 24-hour incubation 3×10^6 cells in 100 μL of PBS were inoculated subcutaneously into the left flank of Balb/c mice. Seven days later, mice were challenged with 3×10^5 live CT26 cells subcutaneously injected into the right flank. Tumors were measured twice weekly with calipers and all mice were euthanized on […].

Q: How did the mean tumor volume turn out when `N.N.[Cl][Pt][Cl]` [Cisplatin] was run?
A: 1041.8±208.3 mm^3
